According to paper PMC8226474, “Design, Syntheses, and Bioevaluations of Some Novel N^2-Acryloylbenzohydrazides as Chemostimulants and Cytotoxic Agents” (Medicines, 2021):

How the values were obtained:
[1] = Cytotoxicity (CC50), non-malignant MCF-10A breast cells; assay type: cell-based; settings: human, MCF-10A cells (non-malignant breast cells); 24 h incubation; read-out: Non-Malignant Cells CC50, MCF10A
Experimental: (§1) In brief, the compounds were incubated for 24 h with the neoplasms, using DMEM and RPMI media. Three independent experiments were carried out.

HL-60 cells = test: Cytotoxicity (CC50), HL-60 cells; assay type: cell-based, human; settings: for CC50: Homo sapiens, HL-60, 24 h incubation; for SI HL-60: average CC50 of non-malignant cells / CC50 HL-60
Experimental: as §1

JURKAT cells = test: Cytotoxicity (CC50), Jurkat cells; assay type: cell-based, human; settings: for CC50: Homo sapiens, Jurkat, 24 h incubation; for SI JURKAT: average CC50 of non-malignant cells / CC50 JURKAT
Experimental: as §1

CRL 1790 cells = test: Cytotoxicity assay, non-malignant CRL 1790 colon cells; assay type: cell-based; settings: Homo sapiens, 48 h, Table 2, read-out: Non-Malignant CRL 1790 Cells IC50
Description: (§2) Evaluation of the cytotoxic properties of the compounds presented in Table 1, Table 2, Table 3 and Table 4 was undertaken using the procedure outlined in [7]. In brief, the HCT 116 cells were obtained from the ATCC and cultured in McCoy’s 5A medium. The CRL 1790 cells were obtained from the ATCC and cultured in Minimum Essential Medium. The MCF-7 and MDA-MBA-231 cells were obtained from the Saskatchewan Cancer Agency and cultured in DMEM. In each assay the culture medium was supplemented with 10% fetal bovine serum and 1% penicillin–streptomycin antibiotics. The time of the bioassays was 48 h, unless indicated otherwise. All determinations were carried out in triplicate on three different occasions.

MDA-MB-231 cells = test: Cytotoxicity assay, MDA-MB-231 breast cancer cells; assay type: cell-based, human; settings: Homo sapiens, MDA-MB-231, 48 h, read-out: percentage inhibition of MDA-MB-231 cells
Description: as §2

[2] = system: Ramos, NALM-60, CEM, HL-60, JURKAT, RAJI cells; test: Cytotoxicity (CC50), average over six leukemia/lymphoma cell lines; assay type: cell-based, human; settings: for CC50: Homo sapiens, average over six neoplastic cell lines
Experimental: as §1

RAJI cells = test: Cytotoxicity (CC50), Raji cells; assay type: cell-based, human; settings: for CC50: Homo sapiens, Raji, 24 h incubation; for SI RAJI: average CC50 of non-malignant cells / CC50 RAJI
Experimental: as §1

[3] = Cytotoxicity (CC50), average over non-malignant cells; assay type: cell-based; settings: human, Hs27 and MCF10A cells (non-malignant), average of both
Experimental: as §1

MCF-7 cells = test: Cytotoxicity assay, MCF-7 breast cancer cells; assay type: cell-based, human; settings: for inhibition at 10 µM / inhibition at 100 µM: read-out: percentage inhibition of MCF-7 cells
Description: as §2

Ramos cells [4] = test: Cytotoxicity (CC50), Ramos cells; assay type: cell-based, human; settings: for CC50: Homo sapiens, Ramos, 24 h incubation; for SI Ramos: average CC50 of non-malignant cells / CC50 Ramos
Experimental: as §1

HCT 116 cells = test: Cytotoxicity assay, HCT 116 colon cancer cells; assay type: cell-based, human; settings: for inhibition at 10 µM / inhibition at 100 µM: read-out: percentage inhibition of HCT 116 cells
Description: as §2

CEM cells = test: Cytotoxicity (CC50), CEM cells; assay type: cell-based, human; settings: for CC50: Homo sapiens, CCRF-CEM, 24 h incubation; for SI CEM: average CC50 of non-malignant cells / CC50 CEM
Experimental: as §1

NALM-60 cells = test: Cytotoxicity (CC50), NALM-60 cells; assay type: cell-based, human; settings: for CC50: Homo sapiens, 24 h incubation; for SI NALM-60: average CC50 of non-malignant cells / CC50 NALM-60
Experimental: as §1

[5] = Cytotoxicity (CC50), non-malignant Hs27 foreskin cells; assay type: cell-based; settings: human, 24 h incubation
Experimental: as §1

Ramos cells [6] = test: Mitochondrial membrane potential of Ramos cells (JC-1 dye, flow cytometry); assay type: cell-based, human; settings: 5 h, Figure 3
Experimental: The effect of 1l on the mitochondrial membrane potential of Ramos cells was determined using the procedure laid out in [9]. In brief, the cells were treated with 1l for 5 h, stained with the JC-1 dye, and then the results were analyzed by flow cytometry.
The MMP of Ramos cells was determined using the JC-1 dye. In this assay, JC-1 enters the energized mitochondria in healthy cells and forms aggregates to produce red fluorescence at 590 nm. However, cells undergoing apoptotic cell death have a low mitochondrial membrane potential.

With `C=CC(=O)NNC(=O)c1ccccc1` [1a, N^2-Acryloylbenzohydrazide] the CC50 at 24 h [1] was 13.7 ± 1.1 µM, the CC50 (HL-60 cells) was 3.32 ± 0.26 µM and the “SI HL-60” value (HL-60 cells) was 3.89. For the same compound, the CC50 (JURKAT cells) was 3.52 ± 0.36 µM, the “SI JURKAT” value (JURKAT cells) was 3.65 and the IC50 (CRL 1790 cells) was greater than 100 µM. For the same compound, the inhibition at 10 µM (MDA-MB-231 cells) was -12.2 ± 1.5%, the inhibition at 100 µM (MDA-MB-231 cells) was 52.1 ± 2.04% and the “Avg SI, neoplastic cells” value [2] was 16.1. The CC50 [2] was 2.64 µM, the CC50 (RAJI cells) was 5.18 ± 0.35 µM and the “SI RAJI” value (RAJI cells) was 2.49. The melting point was 177 to 179 °C, the CC50 at 24 h [3] was 12.9 µM and the inhibition at 10 µM (MCF-7 cells; Homo sapiens, MCF7, 48 h) was 5.47 ± 3.52%. The inhibition at 100 µM (MCF-7 cells; Homo sapiens, MCF7, 48 h) was 51.1 ± 2.87%, the CC50 (Ramos cells [4]) was 0.19 ± 0.01 µM and the “SI Ramos” value (Ramos cells [4]) was 67.9. For the same compound, the inhibition at 10 µM (HCT 116 cells; Homo sapiens, HCT-116, 48 h) was 10.6 ± 1.7%, the inhibition at 100 µM (HCT 116 cells; Homo sapiens, HCT-116, 48 h) was 94.1 ± 1.44% and the IC50 (HCT 116 cells; Homo sapiens, HCT-116, Table 2, 48 h, read-out: Neoplastic Cells IC50, HCT 116) was 36.9 ± 2.84 µM. For the same compound, the “SI (selectivity index)” value (HCT 116 cells; IC50 CRL 1790 / IC50 HCT 116, Table 2) was greater than 2.70, the CC50 (CEM cells) was 0.91 ± 0.48 µM and the “SI CEM” value (CEM cells) was 14.2. For the same compound, the CC50 (NALM-60 cells) was 2.74 ± 0.59 µM, the “SI NALM-60” value (NALM-60 cells) was 4.71 and the CC50 at 24 h [5] was 12.1 ± 0.91 µM.
With `C=CC(=O)NNC(=O)c1ccc(OC)cc1` [1l, N^2-Acryloyl-4-methoxylbenzohydrazide] the CC50 at 24 h [1] was 18.1 ± 0.84 µM, the CC50 (HL-60 cells) was 1.86 ± 0.66 µM and the “SI HL-60” value (HL-60 cells) was 9.62. The CC50 (JURKAT cells) was 2.17 ± 0.45 µM, the “SI JURKAT” value (JURKAT cells) was 8.25 and the IC50 (CRL 1790 cells) was greater than 100 µM. For the same compound, the inhibition at 10 µM (MDA-MB-231 cells) was -4.95 ± 3.12%, the inhibition at 100 µM (MDA-MB-231 cells) was 47.7 ± 3.19% and the “Avg SI, neoplastic cells” value [2] was 22.7. The CC50 [2] was 1.97 µM, the CC50 (RAJI cells) was 2.93 ± 0.43 µM and the “SI RAJI” value (RAJI cells) was 6.11. The “effect on mitochondrial membrane potential of Ramos cells” value (Ramos cells [6]; CC50 concentration of 1l, vs control) was “significantly depolarized”, the “effect on mitochondrial membrane potential of Ramos cells” value (Ramos cells [6]; doubled (2 x CC50) concentration of 1l) was “approximately twofold increase in the mitochondrial depolarization” and the CC50 at 24 h [3] was 17.9 µM. For the same compound, the inhibition at 10 µM (MCF-7 cells; Homo sapiens, MCF7, 48 h) was 60.6 ± 3.29%, the inhibition at 100 µM (MCF-7 cells; Homo sapiens, MCF7, 48 h) was 99.4 ± 2.34% and the IC50 (MCF-7 cells; Homo sapiens, MCF7, Table 2, 48 h, read-out: Neoplastic Cells IC50, MCF-7) was 3.18 ± 0.53 µM. The “SI (selectivity index)” value (MCF-7 cells; IC50 CRL 1790 / IC50 MCF-7, Table 2) was greater than 31.5, the CC50 (Ramos cells [4]) was 0.19 ± 0.01 µM and the “SI Ramos” value (Ramos cells [4]) was 94.2. For the same compound, the inhibition at 10 µM (HCT 116 cells; Homo sapiens, HCT-116, 48 h) was 8.62 ± 2.79%, the inhibition at 100 µM (HCT 116 cells; Homo sapiens, HCT-116, 48 h) was 85.1 ± 3.28% and the CC50 (CEM cells) was 1.42 ± 0.25 µM. For the same compound, the “SI CEM” value (CEM cells) was 12.6, the CC50 (NALM-60 cells) was 3.25 ± 0.99 µM and the “SI NALM-60” value (NALM-60 cells) was 5.51. It also gave a CC50 at 24 h [5] of 17.7 ± 0.62 µM.
